From publication PMC7973766, “Characterization of zebrafish GABAA receptor subunits” (Scientific Reports, 2021)

Assays:
Type in all cases: cell-based
[1] = target: T1, zebrafish β1 homopentameric GABAA receptor (Danio rerio, UniProt F1QPW7); test: two-electrode voltage clamp, Xenopus oocytes, GABA-evoked current; conditions: agonist at 10 mM only; -50 mV, pH 7.5
T1 construct: gene gabrb1; homopentamer
T1 sequence (F1QPW7 29-484): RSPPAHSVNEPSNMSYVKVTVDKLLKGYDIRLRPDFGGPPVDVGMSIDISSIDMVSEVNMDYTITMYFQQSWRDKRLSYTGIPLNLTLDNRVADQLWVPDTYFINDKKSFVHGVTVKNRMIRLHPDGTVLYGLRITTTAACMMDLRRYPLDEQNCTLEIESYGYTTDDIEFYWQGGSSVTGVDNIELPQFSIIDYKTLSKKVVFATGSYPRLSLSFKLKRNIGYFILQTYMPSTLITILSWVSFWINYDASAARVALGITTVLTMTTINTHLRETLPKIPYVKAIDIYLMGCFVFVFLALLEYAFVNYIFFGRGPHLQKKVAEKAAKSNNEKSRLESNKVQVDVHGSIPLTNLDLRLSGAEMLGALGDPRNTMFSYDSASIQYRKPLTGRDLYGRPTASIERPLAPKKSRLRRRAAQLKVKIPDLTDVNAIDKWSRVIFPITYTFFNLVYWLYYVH

[2] = target: T2, zebrafish β4 homopentameric GABAA receptor (Danio rerio, UniProt A0A2R8QJR5); test: as above; conditions: agonist at 10 mM only; -50 mV, pH 7.5
T2 construct: gene gabrb4; homopentamer
T2 sequence (A0A2R8QJR5 26-482): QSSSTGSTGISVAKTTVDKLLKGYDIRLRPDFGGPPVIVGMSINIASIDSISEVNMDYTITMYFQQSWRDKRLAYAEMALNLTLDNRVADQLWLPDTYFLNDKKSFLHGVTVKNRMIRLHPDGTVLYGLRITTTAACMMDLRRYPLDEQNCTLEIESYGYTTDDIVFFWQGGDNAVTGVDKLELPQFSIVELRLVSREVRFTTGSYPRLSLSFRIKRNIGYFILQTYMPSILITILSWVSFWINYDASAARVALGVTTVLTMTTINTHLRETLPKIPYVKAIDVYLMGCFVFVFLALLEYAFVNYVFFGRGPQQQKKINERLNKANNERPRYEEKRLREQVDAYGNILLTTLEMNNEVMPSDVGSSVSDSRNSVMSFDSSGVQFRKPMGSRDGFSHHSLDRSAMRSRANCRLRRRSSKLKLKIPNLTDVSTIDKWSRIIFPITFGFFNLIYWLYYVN

[3] = target: T3, zebrafish β3 homopentameric GABAA receptor (Danio rerio, UniProt A0A0R4ILP2); test: as above; conditions: agonist at 10 mM only; -50 mV, pH 7.5
T3 construct: gene gabrb3; homopentamer
T3 sequence (A0A0R4ILP2 26-498): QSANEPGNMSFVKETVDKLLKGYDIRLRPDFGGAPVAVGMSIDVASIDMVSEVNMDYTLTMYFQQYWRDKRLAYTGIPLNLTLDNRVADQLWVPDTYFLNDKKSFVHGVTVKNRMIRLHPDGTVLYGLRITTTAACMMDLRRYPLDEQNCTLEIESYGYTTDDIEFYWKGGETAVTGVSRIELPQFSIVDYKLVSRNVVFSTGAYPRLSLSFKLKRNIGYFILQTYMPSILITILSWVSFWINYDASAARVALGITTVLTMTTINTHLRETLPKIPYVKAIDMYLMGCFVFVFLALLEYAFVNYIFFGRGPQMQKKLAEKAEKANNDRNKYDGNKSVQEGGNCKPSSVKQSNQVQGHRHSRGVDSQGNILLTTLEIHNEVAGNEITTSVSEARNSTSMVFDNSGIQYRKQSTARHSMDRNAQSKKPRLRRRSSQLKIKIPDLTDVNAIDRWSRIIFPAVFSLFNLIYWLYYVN

[4] = target: T3, zebrafish β3 homopentameric GABAA receptor; test: two-electrode voltage clamp, Xenopus oocytes, etomidate-evoked current

SMILES | two-electrode voltage clamp, Xenopus oocytes, GABA-evoked current [1] | two-electrode voltage clamp, Xenopus oocytes, GABA-evoked current [2] | two-electrode voltage clamp, Xenopus oocytes, GABA-evoked current [3] | EC50 [4] [µM]
NCCCC(=O)O [GABA] | either single β subunit yielded small currents | either single β subunit yielded small currents | either single β subunit yielded small currents | –
CCOC(=O)c1cncn1[C@H](C)c1ccccc1 [etomidate] | – | – | – | 30.3 ± 5.7
